Reference: ChEMBL document CHEMBL5442219

Key:
Conditions in all cases: Compound concentration 10 µM
[1] = target: 5-hydroxytryptamine receptor 6 (Homo sapiens) (UniProt P50406)
Description: PDSP Primary Binding target: HTR6 - Compounds are tested at 10 uM concentration, plate are incubated at room temperature in the dark for 90 minutes. Reaction are stopped by vacuum filtration onto 0.3% polyethyleneimine soaked filter mats using Filtermate harvester. Scintilation cocktail is then melted onto microwave-dried filters on a hot plate and the radio activity is counted in Microbia counter.

[2] = target: T1, Muscarinic acetylcholine receptor M4 (Homo sapiens) (UniProt P08173)
T1 sequence (whole entry): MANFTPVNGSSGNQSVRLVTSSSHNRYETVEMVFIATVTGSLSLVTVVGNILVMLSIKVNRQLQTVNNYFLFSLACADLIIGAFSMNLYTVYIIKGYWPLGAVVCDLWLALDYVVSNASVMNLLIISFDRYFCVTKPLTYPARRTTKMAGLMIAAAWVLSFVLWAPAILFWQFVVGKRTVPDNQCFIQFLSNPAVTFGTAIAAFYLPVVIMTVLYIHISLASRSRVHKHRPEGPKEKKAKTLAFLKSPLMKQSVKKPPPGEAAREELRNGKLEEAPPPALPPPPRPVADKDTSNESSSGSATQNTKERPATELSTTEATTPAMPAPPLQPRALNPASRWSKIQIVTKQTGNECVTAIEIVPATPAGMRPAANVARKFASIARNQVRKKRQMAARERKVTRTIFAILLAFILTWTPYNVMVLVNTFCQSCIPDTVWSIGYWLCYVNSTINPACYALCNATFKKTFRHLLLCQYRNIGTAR
Description: PDSP Primary Binding target: CHRM4 - Compounds are tested at 10 uM concentration, plate are incubated at room temperature in the dark for 90 minutes. Reaction are stopped by vacuum filtration onto 0.3% polyethyleneimine soaked filter mats using Filtermate harvester. Scintilation cocktail is then melted onto microwave-dried filters on a hot plate and the radio activity is counted in Microbia counter.

[3] = target: Kappa-type opioid receptor (Homo sapiens) (UniProt P41145)
Kappa-type opioid receptor (Homo sapiens), sequence (P41145 whole entry): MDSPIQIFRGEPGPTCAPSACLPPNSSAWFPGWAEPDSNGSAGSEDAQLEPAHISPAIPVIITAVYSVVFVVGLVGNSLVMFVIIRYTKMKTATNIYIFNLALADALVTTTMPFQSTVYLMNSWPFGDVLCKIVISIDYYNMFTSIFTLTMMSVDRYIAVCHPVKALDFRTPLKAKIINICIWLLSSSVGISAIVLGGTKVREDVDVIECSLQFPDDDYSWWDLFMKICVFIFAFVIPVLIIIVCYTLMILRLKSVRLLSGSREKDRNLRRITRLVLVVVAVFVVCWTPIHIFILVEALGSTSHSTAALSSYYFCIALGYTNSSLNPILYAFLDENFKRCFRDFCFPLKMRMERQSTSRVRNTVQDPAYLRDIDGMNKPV
Description: PDSP Primary Binding target: OPRK1 - Compounds are tested at 10 uM concentration, plate are incubated at room temperature in the dark for 90 minutes. Reaction are stopped by vacuum filtration onto 0.3% polyethyleneimine soaked filter mats using Filtermate harvester. Scintilation cocktail is then melted onto microwave-dried filters on a hot plate and the radio activity is counted in Microbia counter.

[4] = target: T2, Alpha-2A adrenergic receptor (Homo sapiens) (UniProt P08913)
T2 sequence (whole entry): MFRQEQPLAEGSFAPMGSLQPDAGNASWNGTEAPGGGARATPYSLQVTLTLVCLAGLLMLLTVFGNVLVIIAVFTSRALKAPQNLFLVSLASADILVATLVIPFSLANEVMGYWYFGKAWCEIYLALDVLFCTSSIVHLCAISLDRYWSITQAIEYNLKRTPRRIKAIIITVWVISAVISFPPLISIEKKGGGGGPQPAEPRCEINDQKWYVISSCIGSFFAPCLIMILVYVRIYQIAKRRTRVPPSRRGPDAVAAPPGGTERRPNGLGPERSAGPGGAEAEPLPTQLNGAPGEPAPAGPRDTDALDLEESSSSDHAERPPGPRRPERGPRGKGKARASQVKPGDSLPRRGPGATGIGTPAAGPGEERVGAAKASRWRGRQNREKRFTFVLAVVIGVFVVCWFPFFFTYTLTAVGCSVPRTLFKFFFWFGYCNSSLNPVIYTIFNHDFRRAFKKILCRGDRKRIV
Description: PDSP Primary Binding target: ADRA2A - Compounds are tested at 10 uM concentration, plate are incubated at room temperature in the dark for 90 minutes. Reaction are stopped by vacuum filtration onto 0.3% polyethyleneimine soaked filter mats using Filtermate harvester. Scintilation cocktail is then melted onto microwave-dried filters on a hot plate and the radio activity is counted in Microbia counter.

[5] = target: T3, Muscarinic acetylcholine receptor M2 (Homo sapiens) (UniProt P08172)
T3 sequence (whole entry): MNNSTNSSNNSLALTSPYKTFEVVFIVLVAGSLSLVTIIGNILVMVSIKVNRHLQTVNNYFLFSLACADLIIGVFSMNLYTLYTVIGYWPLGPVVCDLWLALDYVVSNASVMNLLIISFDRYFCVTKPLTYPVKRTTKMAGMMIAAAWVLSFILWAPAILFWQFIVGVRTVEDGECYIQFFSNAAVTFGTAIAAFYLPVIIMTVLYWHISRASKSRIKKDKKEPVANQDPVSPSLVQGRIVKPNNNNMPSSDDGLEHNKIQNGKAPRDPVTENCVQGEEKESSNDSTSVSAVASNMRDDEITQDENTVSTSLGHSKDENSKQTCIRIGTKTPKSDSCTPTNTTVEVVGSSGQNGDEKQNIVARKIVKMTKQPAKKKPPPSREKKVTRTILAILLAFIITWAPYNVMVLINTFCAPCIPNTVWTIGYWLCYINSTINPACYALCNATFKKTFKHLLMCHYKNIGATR
Description: PDSP Primary Binding target: CHRM2 - Compounds are tested at 10 uM concentration, plate are incubated at room temperature in the dark for 90 minutes. Reaction are stopped by vacuum filtration onto 0.3% polyethyleneimine soaked filter mats using Filtermate harvester. Scintilation cocktail is then melted onto microwave-dried filters on a hot plate and the radio activity is counted in Microbia counter.

[6] = target: Histamine H1 receptor (Homo sapiens) (UniProt P35367)
Histamine H1 receptor (Homo sapiens), sequence (P35367 whole entry): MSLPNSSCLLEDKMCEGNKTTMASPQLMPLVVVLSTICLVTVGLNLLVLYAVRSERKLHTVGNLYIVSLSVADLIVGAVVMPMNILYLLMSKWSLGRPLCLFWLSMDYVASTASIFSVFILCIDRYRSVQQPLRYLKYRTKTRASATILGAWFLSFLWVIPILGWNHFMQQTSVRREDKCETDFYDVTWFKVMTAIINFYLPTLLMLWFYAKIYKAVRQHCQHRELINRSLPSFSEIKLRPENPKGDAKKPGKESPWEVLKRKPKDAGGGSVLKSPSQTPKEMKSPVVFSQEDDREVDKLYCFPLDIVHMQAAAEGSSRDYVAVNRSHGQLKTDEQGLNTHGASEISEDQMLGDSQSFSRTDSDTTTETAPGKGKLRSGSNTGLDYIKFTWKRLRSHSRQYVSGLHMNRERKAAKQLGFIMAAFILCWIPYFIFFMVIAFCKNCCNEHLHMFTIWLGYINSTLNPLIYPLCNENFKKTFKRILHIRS
Description: PDSP Primary Binding target: HRH1 - Compounds are tested at 10 uM concentration, plate are incubated at room temperature in the dark for 90 minutes. Reaction are stopped by vacuum filtration onto 0.3% polyethyleneimine soaked filter mats using Filtermate harvester. Scintilation cocktail is then melted onto microwave-dried filters on a hot plate and the radio activity is counted in Microbia counter.

[7] = target: T4, Alpha-1B adrenergic receptor (Homo sapiens) (UniProt P35368)
T4 sequence (whole entry): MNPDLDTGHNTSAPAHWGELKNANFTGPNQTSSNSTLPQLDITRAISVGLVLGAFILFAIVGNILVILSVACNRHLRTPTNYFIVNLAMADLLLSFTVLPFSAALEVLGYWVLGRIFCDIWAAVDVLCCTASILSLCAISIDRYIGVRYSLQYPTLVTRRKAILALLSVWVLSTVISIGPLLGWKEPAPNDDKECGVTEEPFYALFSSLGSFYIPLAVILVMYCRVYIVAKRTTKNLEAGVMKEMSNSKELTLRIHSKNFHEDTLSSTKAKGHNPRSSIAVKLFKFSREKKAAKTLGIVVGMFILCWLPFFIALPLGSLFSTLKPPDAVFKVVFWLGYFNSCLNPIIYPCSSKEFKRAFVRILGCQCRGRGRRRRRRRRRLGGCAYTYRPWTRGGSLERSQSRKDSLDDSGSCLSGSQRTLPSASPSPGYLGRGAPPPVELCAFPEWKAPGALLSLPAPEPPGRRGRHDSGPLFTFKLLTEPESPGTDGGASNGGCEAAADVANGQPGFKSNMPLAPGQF
Description: PDSP Primary Binding target: ADRA1B - Compounds are tested at 10 uM concentration, plate are incubated at room temperature in the dark for 90 minutes. Reaction are stopped by vacuum filtration onto 0.3% polyethyleneimine soaked filter mats using Filtermate harvester. Scintilation cocktail is then melted onto microwave-dried filters on a hot plate and the radio activity is counted in Microbia counter.

[8] = target: T5, Alpha-1D adrenergic receptor (Homo sapiens) (UniProt P25100)
T5 sequence (whole entry): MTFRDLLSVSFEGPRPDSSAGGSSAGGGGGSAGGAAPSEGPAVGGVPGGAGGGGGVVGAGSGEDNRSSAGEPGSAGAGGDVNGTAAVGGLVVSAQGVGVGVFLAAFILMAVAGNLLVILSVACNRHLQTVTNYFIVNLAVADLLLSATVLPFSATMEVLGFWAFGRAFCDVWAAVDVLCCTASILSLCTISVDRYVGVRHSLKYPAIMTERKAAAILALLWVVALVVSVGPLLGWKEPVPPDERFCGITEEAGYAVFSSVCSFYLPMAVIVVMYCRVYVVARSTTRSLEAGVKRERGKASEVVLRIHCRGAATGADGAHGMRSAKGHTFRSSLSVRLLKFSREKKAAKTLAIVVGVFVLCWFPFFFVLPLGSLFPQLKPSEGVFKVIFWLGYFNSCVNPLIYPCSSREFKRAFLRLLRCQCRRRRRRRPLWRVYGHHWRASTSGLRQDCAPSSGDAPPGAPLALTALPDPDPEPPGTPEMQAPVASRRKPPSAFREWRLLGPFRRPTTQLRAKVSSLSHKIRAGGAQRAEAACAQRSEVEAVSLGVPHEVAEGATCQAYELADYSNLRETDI
Description: PDSP Primary Binding target: ADRA1D - Compounds are tested at 10 uM concentration, plate are incubated at room temperature in the dark for 90 minutes. Reaction are stopped by vacuum filtration onto 0.3% polyethyleneimine soaked filter mats using Filtermate harvester. Scintilation cocktail is then melted onto microwave-dried filters on a hot plate and the radio activity is counted in Microbia counter.

[9] = target: D(1B) dopamine receptor (Homo sapiens) (UniProt P21918)
D(1B) dopamine receptor (Homo sapiens), sequence (P21918 whole entry): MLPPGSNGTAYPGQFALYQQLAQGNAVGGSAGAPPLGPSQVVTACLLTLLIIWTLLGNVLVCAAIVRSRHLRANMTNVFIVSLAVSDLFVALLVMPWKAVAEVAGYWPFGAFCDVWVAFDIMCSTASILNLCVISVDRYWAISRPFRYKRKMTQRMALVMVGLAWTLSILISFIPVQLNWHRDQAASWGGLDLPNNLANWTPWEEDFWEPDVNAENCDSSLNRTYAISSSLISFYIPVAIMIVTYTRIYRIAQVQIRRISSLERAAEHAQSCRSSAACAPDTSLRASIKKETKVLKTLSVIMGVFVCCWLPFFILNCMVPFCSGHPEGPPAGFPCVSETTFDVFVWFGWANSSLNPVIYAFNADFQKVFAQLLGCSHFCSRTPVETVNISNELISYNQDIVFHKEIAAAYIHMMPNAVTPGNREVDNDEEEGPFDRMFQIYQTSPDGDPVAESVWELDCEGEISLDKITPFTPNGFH
Description: PDSP Primary Binding target: DRD5 - Compounds are tested at 10 uM concentration, plate are incubated at room temperature in the dark for 90 minutes. Reaction are stopped by vacuum filtration onto 0.3% polyethyleneimine soaked filter mats using Filtermate harvester. Scintilation cocktail is then melted onto microwave-dried filters on a hot plate and the radio activity is counted in Microbia counter.

5-hydroxytryptamine receptor 6 (Homo sapiens), sequence (P50406 whole entry): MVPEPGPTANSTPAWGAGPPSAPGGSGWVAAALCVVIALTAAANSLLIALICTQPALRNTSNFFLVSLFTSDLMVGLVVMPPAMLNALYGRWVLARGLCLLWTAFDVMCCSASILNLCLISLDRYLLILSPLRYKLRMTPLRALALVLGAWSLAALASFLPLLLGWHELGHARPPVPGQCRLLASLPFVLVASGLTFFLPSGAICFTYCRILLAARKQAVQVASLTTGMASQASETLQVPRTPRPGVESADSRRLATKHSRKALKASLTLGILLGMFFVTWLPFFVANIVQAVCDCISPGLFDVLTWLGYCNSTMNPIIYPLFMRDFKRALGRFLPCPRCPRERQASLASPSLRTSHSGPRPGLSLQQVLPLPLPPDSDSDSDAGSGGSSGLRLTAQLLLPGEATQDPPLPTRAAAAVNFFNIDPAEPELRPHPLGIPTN

Compound | inhibition [1] [%] | inhibition [2] [%] | inhibition [3] [%] | inhibition [4] [%] | inhibition [5] [%] | inhibition [6] [%] | inhibition [7] [%] | inhibition [8] [%] | inhibition [9] [%]
COc1ccccc1N1CCN(CCCCNC(=O)c2ccc3ccccc3c2)CC1 | 37.4 | 0.77 | 35.6 | 100 | 7.22 | 97 | 96.8 | 94 | –
CCc1nn(CCCN2CCN(c3cccc(Cl)c3)CC2)c(=O)n1CCOc1ccccc1 | 74.7 | – | 49.2 | 91.1 | – | 94.5 | 97.5 | 83.9 | 6.13
Clc1cccc(Cl)c1NC1=NCCN1 | – | -8.53 | 11.2 | 103 | – | – | 65.3 | 66.8 | –
O=C(O)Cn1c(C(=O)Nc2nc(-c3ccccc3Cl)cs2)cc2ccccc21 | – | – | 2.51 | 8.83 | 0.82 | -9.22 | -9.67 | -3.75 | -2.39
COc1ccc2[nH]cc(CCNC(C)=O)c2c1 | – | – | – | 8.96 | – | – | 1.22 | -5.37 | 6.12
OCc1cc(C(O)CNCCCCCCOCCCCc2ccccc2)ccc1O (configuration not stated) | 18 | – | 9.07 | 58 | 3.27 | 27.7 | 47.7 | 65.8 | 19.6
CC1CCN(CC[C@H]2CCCN2S(=O)(=O)c2cccc(O)c2)CC1 | – | 8.85 | 50.4 | 65.6 | – | 44.4 | -3.56 | – | 85.1
CCC(=O)NCC[C@@H]1CCc2ccc3c(c21)CCO3 | – | -2.55 | 14.2 | 18.4 | – | -1.68 | -0.82 | 10.9 | -3.26
Cc1ccc(O)c([C@H](CCN(C(C)C)C(C)C)c2ccccc2)c1 | – | 0.61 | 31 | 20.2 | 97.6 | 83.1 | 17.4 | 1.72 | –
CCCn1c(=O)c2nc(C34CC5CC(CC3C5)C4)[nH]c2n(CCC)c1=O | -4.94 | – | 4.62 | 10 | – | 8.71 | – | -8.33 | 23.9
Brc1c(NC2=NCCN2)ccc2nccnc12 | -2.59 | – | – | 103 | – | – | 55.7 | 59 | 34.9
Cc1nn(C)c(C)c1-c1cccc2c1CC[C@H](N(C)C)C2 | -8.86 | 5.06 | 23.1 | 89.8 | – | 9.36 | 1.62 | 2.35 | 26
COC(=O)[C@H]1[C@H]2C[C@H]3c4[nH]c5ccccc5c4CCN3C[C@H]2CC[C@@H]1O | 85.3 | -4.59 | 19 | 98.3 | – | – | 58.4 | 58.7 | 11.8
CC(C)(C(=O)O)c1ccc(C(O)CCCN2CCC(C(O)(c3ccccc3)c3ccccc3)CC2)cc1 (configuration not stated) | -8.41 | -3.2 | – | -4.3 | – | – | 2.41 | -2.43 | 18.3
Cc1ccccc1N1CCN(S(=O)(=O)C[C@]23CC[C@H](C[C@@H]2NC(=O)[C@@H](N)CCS(C)(=O)=O)C3(C)C)CC1 | 0.91 | – | 98.5 | 27.8 | – | 0.34 | -3.68 | 4.26 | -6.4
CCc1cc2c(cc1CC)CC(NC[C@H](O)c1ccc(O)c3[nH]c(=O)ccc13)C2 | – | 17.9 | – | 42.1 | – | 34.9 | 59 | 75.3 | 38.5
CC(C)[C@H](CO)Nc1nc(Nc2cccc(Cl)c2)c2ncn(C(C)C)c2n1 | 52.3 | – | 34.6 | 6.44 | – | -4.77 | 12.9 | 13 | 8.79
Cc1cc(C)c(N)c(C#Cc2cccc(F)c2)n1 | 16.2 | – | 18.4 | 4.3 | – | 9.77 | -8.91 | 28.9 | 0.26
N#Cc1c(N)nc(SCc2csc(-c3ccc(Cl)cc3)n2)c(C#N)c1-c1ccc(OCCO)cc1 | – | -8.79 | -8.5 | 26.7 | – | 14.2 | 7.17 | 6.13 | –
O=C1N/C(=N/c2ccccc2F)S/C1=C\c1ccc(C(=O)O)cc1 | 24.9 | – | – | – | – | 42.9 | – | – | 6.76
O=c1ccn([C@@H]2O[C@H](COP(=O)(O)OP(=O)(O)OP(=O)(O)O)[C@@H](O)[C@H]2O)c(=O)[nH]1 | 11.9 | -4.92 | 47.6 | 11.6 | – | -0.29 | – | 11.6 | 20.2
CCc1nn2c(C)cc(C)nc2c1Cc1ccc(-c2nnc(C3CCNCC3)o2)cc1 | 14.4 | -6.61 | 4.27 | 42.9 | – | 9.84 | -7.24 | -0.67 | 6.13
CNC[C@H](O)c1ccc(O)c(O)c1 | – | – | – | 49.1 | – | – | 2.3 | 12.1 | -3.14
NC[C@H](O)c1ccc(O)c(O)c1 | – | – | 0.54 | 61.9 | -6.81 | – | 37.9 | 64.8 | 34.8
